Source: a melting point compilation (Tetko et al.; mined from patent text by program, amines drawn as free bases though some values may be those of a salt)

| SMILES | melting point [°C] |
| --- | --- |
| Clc1ccc2ccc(/C=C/c3cccc(CN4CCc5cccc(CCc6nnn[nH]6)c54)c3)nc2c1 | 141 to 144 |
| COC(=O)COc1ccc(C(=O)OCc2ccccc2)cc1 | 63 to 66 |
| N#Cc1cn(-c2ccccn2)nc1-c1ccc([N+](=O)[O-])o1 | 207 to 208 |
| CCOC(=O)C1(CBr)C=CC=CC1S(=O)(=O)NC(C)(C)C (stereo unspecified) | 74 to 75 |
| Cc1cccc(N2CCOC2=O)c1COc1cccn2c(C=O)c(C)nc12 | 242 to 244 |
| N#CC1CCc2c([nH]c3ccc(Cl)cc23)C1 (stereo unspecified) | 181 to 182 |
| N#Cc1cc(Cn2cncn2)ccc1-c1ccc(O)c(Cl)c1 | 195 to 197 |
| CCCCc1nc2sccc2n1Cc1ccc(-c2ccccc2C(=O)O)cc1 | 203 |
| NC(=O)CNC(=O)c1cccc(-c2cccc3oc(Cc4cccc(C(F)(F)F)c4)cc23)c1 | 105 to 106 |
| O=C(O)c1ccc(CSc2nnc(-c3ccc4c(c3)CCO4)o2)cc1 | 203 to 205 |
| COc1cc2ncc(C#N)c(C)c2cc1OCc1ccccc1 | 165 to 172 |
| COc1cc(I)c(Oc2cnc(N)nc2N)cc1I | 136 to 138 |
| CCOC(=O)c1cnoc1-c1ccc(-c2ccccc2)cc1 | 73 to 75 |
| CC(=O)[Si](C)(C(C)(C)C)C(C)(C)C | 35 |
| O=C(c1cccs1)C1C(=O)N(C(=O)NS(=O)(=O)Cl)c2ccc(Cl)cc21 (stereo unspecified) | 166 to 169 |
| COc1ccc2nc(COc3cccc(OCc4cccc(C)c4C(=O)O)c3)ccc2c1 | 176 to 179 |
| CCCCCCCCCCCCCCCCOC(=O)c1cccc([N+](=O)[O-])c1 | 51 to 53 |
| O=C(N[C@H]1CC[C@H](CCN2CCN(c3nccc4c3CCO4)CC2)CC1)c1ccc(-c2cccnc2)cc1 | 218 |
| CCOC(=O)C(C)OCc1cc2cc(Cl)ccc2n1S(=O)(=O)c1cc(OC)ccc1OC (stereo unspecified) | 118 to 120 |
| COc1cccc2c1C(=O)c1c(OC)cc(Cc3ccccc3C(O)=S)cc1C2=O | 235 to 237 |
| c1ccc(CN2CCN(Cc3n[nH]c4c3CCc3ccccc3-4)CC2)cc1 | 158 to 160 |
| CCc1nc2c([nH]1)C(=O)N1CCN=C1N2Cc1ccc(Cl)cc1 | 278 to 279 |
| COc1ccc(C2=NNC(N)(C3CCN(Cc4ccccc4)CC3)c3cc(OC)ccc32)cc1 (stereo unspecified) | 150 |
| COC(=O)C(C)Oc1cccc(C=Cc2ccc3ccc(Br)cc3n2)c1 (stereo unspecified) | 101 to 102 |
| CC(C)(C)[Si](C)(C)OC1C(n2ccc(=O)[nH]c2=O)OC(CO)C1(O)C#C[Si](C)(C)C (stereo unspecified) | 188 to 189 |
| O=C(O)c1ccc(C=Cc2ccc(-c3cc4ccccc4o3)cc2)cc1 | 348 to 349 |

| SMILES | melting point [°C] |
| --- | --- |
| O=C(NC(=O)c1ccc(F)cc1Cl)Nc1ccc(Cl)c(Cl)c1 | 208 |
| COC(=O)C1CC2C3CCc4cc(O)ccc4C3CCC2(C)C1=O (stereo unspecified) | 215 to 217 |
| CS(=O)(=O)c1ccc(-c2[nH]c(I)cc2-c2ccc(F)cc2)cc1 | 229 to 231 |
| Cc1ccc2nc3[nH]c(=O)[nH]c3cc2c1Cl | > 360 |
| COc1ccc(-c2[nH]nc3c2C(=O)c2c(NC(=O)NNC(=O)c4cccc(N)c4)cccc2-3)cc1 | 250 |
| Nc1c([N+](=O)[O-])sc2c(Cl)cc(Cl)cc12 | 290 to 292 |
| O=CNc1ccccc1-c1cc2ccccc2[nH]1 | 147 to 149 |
| Cc1nc2cc(NC(=O)c3cc4cccnc4n3Cc3ccncc3)ccc2s1 | 211 to 236 |
| CON(C(=O)c1ccoc1C)C1CCCCC1 | 46 |
| CCCCCC(CCn1ccnc1)SCc1ccc(Cl)cc1Cl (stereo unspecified) | 124 to 126 |
| COc1ccc(-n2nc(N(C)C)cc2-c2ccc(OCCO)cc2)cc1 | 120 to 122 |
| COc1ccc(C(=O)NN=C(N)N)c(F)c1 | 220 |
| COC(=O)c1cccc(-c2cccc3c2nc(N(C)c2cccc(C(F)(F)F)c2)n3C)c1 | 148 to 149 |
| CCN(CCCCC1CCN(C(c2ccccc2)c2ccccc2)CC1)C(=O)C=Cc1cccnc1 | 115 to 117 |
| CO/N=C(\C)c1ccc(Nc2c3ccccc3nc3occc23)cc1 | 167 to 168 |
| CC(CCO)c1ccc(-c2ccccc2)c(F)c1 (stereo unspecified) | 72 |
| Cc1c(CC(=O)O)c2cc3c(cc2n1C(=O)C=Cc1ccccc1)OCO3 | 190 to 191 |
| Cc1cc(C)c2nc3n(c(=O)c2c1)-c1ccc(F)cc1C3=O | 275 to 277 |
| COc1ccc2[nH]c(CCN(C)C)c(CSc3ccccc3)c2c1 | 85 to 88 |
| CC1CC(c2cc3ccc(F)cc3s2)CCN1 (stereo unspecified) | 34 to 37 |
| CC1(C)CC(=C(c2ccc(O)cc2)c2ccc(I)cc2)CC(C)(C)C1 | 148 to 149 |
| COC(=O)CCC(=O)Nc1cccc(OCc2cc3ccccc3o2)c1 | 112 to 113 |
| O=C(c1ccc(F)cc1)c1cc2ccsc2s1 | 113 |
| CCOC(=O)C1=C(C)NC(C)=C(C(=O)OC)C1c1cccc2c(=O)c(C)c(-c3ccccc3)oc12 (stereo unspecified) | 226 to 228 |
| Cn1c2ccc(Cl)cc2c2c3ccccc3c(=O)[nH]c21 | > 300 |
| COc1cc(C(O)CN2CCC(O)(c3ccccc3)CC2)on1 (stereo unspecified) | 166 to 168 |

| SMILES | melting point [°C] |
| --- | --- |
| CCOC(=O)c1cc(-c2ccc(Cl)cc2)c(Cl)nc1NC=O | 184 to 187 |
| O=C(NCCOc1ccc(CC(Oc2ccccc2)C(=O)O)cc1[N+](=O)[O-])c1ccc(-c2ccccn2)cc1 (stereo unspecified) | 178 to 179 |
| O=C1C2=C(CCCC2)C(=O)N1c1ccc2c(c1)NC(=O)C21CC1 | 274 to 276 |
| FC(F)(F)c1ccccc1-c1ccnc2ncnn12 | 149 to 151 |
| CC(=O)c1cccc(NC(=O)NCC(=O)N(CC(=O)N(C)c2ccccc2)c2ccccc2)c1 | 170 |
| CCCNC(=O)C(C)Cc1ccc2c(c1)c(Cc1ccc(C(=O)O)cc1OC)cn2CCC (single isomer, unassigned; (-)) | 85 to 93 |
| CC1CC(=O)NN=C1c1ccc2c(c1)N(C)C(=O)CO2 (stereo unspecified) | 215 to 218 |
| O=C1CCC(N2C(=O)c3cccc(NC(=O)c4cccc([N+](=O)[O-])c4)c3C2=O)C(=O)N1 (stereo unspecified) | 245 to 247 |
| COC(=O)CCCCC#Cc1cc(Cl)ccc1N | 66 |
| COc1cc(Cc2c(N)nc(N)nc2Cl)cc(OC)c1N | 222 to 224 |
| O=C(O)Cc1cc(C(=O)c2ccccc2Cl)ccc1O | 148 |
| N#Cc1cnc2cc(Cl)c([N+](=O)[O-])cc2c1Cl | 143 to 153 |
| Nc1nc2c(OCCOc3nccnc3N3CCNCC3)cccc2o1 | 138 to 140 |
| O=C(O)CN1C(=O)C2(COc3cc4c(cc32)OCCO4)c2ccccc21 (stereo unspecified) | 193 to 196 |
| CC(C)c1ccc(NC(=O)NCCc2ccccn2)cc1 | 72 to 73 |
| CCOC(=O)c1c(CCCCn2ccnc2)nc2cc(OC)c(OC)cc2c1-c1ccc(OC)c(OC)c1 | 119 to 120 |
| CCOC(=O)CCc1cc2c(c(Br)c1Br)OCC2 | 42 to 43 |
| O=[N+]([O-])C=C1NCCCN1Cc1ccc(Cl)cc1 | 172 to 174 |
| FC(F)(F)Sc1ccc(C=Cc2nc(CCl)cs2)cc1 | 133 to 134 |
| COc1cc(OC)c2c(=O)[nH]c(-c3ccc4[nH]c(CN(C)C)cc4c3)nc2c1 | 187 to 188 |
| C=Cc1c(C(=O)OC)nc(Cl)c(Cl)c1N | 96 to 97 |
| COc1cccc(C2=C(CO)C(=O)N(C)CC2)c1 | 81 to 83 |
| CCCCCc1ccc(OCC23CCC(CCC)(CC2)CC3)c(C#N)c1C#N | 133 |
| Cc1ccc(CO)cc1NC(=O)CC12CC3CC(CC(C3)C1)C2 | 190 |
| CCCCOC(=O)C1CC(n2cnc3c(N)ncnc32)C(O)C1O (stereo unspecified) | 173 to 175 |
| Cc1cc(C)c(Cc2nc(C)nc(Cl)c2C)c(C)c1 | 82 to 84 |

| SMILES | melting point [°C] |
| --- | --- |
| COc1cc2ncc(C#N)c(Nc3ccc(C(N)=O)cc3)c2cc1OC | > 250 |
| N#Cc1c(-c2ccc(Cl)cc2)[nH]c(C(F)(F)F)c1C(F)(F)F | 208 |
| Cc1oc(-c2ccccc2)nc1CCOc1ccc(C=O)c2sccc12 | 154 |
| CN(C)C=Cc1[nH]c(=O)ccc1C#N | 298 to 300 |
| Cc1ccc(C(=O)Nc2c[nH]nc2C(=O)NCCC#N)o1 | 135 to 137 |
| Cn1c(=O)n(C)c2cc3c(N4CCN(C(=O)Nc5ccc([N+](=O)[O-])cc5)CC4)ncnc3cc21 | 299 to 300 |
| Cn1c(C(F)(F)F)cc(=O)n(-c2c(F)cc(Cl)c3[nH]c(=O)oc23)c1=O | 67 to 71 |
| CCOC(=O)C(C#N)=NC=C(N)c1ccccc1 | 139 to 140 |
| CCc1cccc2c3c([nH]c12)C(CC)(CC(C)O)OCC3 (stereo unspecified) | 103 to 104 |
| Cn1nnnc1C=C(c1ccc(F)cc1)c1ccc(F)cc1 | 169 to 171 |
| COC(=O)C(C)Oc1cc(C)ccc1COc1ccc(-n2c(=O)cc(C(F)(F)F)n(C)c2=O)cc1 (stereo unspecified) | 52 to 54 |
| CCCOc1ccc(C)cc1C(N)=O | 112 to 115 |
| CCCn1c(=O)c(C=O)c2n(c1=O)CCCS2 | 153 to 154 |
| O=C(O)CCc1ccc(CNC(=O)C2Cc3ccccc3N2S(=O)(=O)c2ccc(-c3cccc(C(F)(F)F)c3)cc2)cc1 (stereo unspecified) | 85 |
| Clc1cc(CCc2ccccn2)c2oc(-c3cnc4ccccc4c3)nc2c1 | 124 to 125 |
| O=C(O)Cc1ccc(Oc2ccc([N+](=O)[O-])cc2)cc1 | 132 to 136 |
| COC(=O)c1nn(-c2ccc(Cl)cc2Cl)c(-c2ccc(Cl)cc2)c1C | 133 |
| Cc1noc(NS(=O)(=O)c2cccc(F)c2)c1Br | 125 to 128 |
| CNC(=O)CC(SC(=O)c1ccccc1)C(CC(C)C)C(=O)NC(Cc1ccc(OC)cc1)C(=O)NC (stereo unspecified) | 140 to 144 |
| Cc1cccc2c1nc(-c1c(F)cccc1F)n2Cc1c(Cl)cccc1Cl | 202 to 203 |
| Cc1sc(-c2ccc(C(F)(F)F)cc2)nc1O | 232 to 233 |
| N#Cc1cc(C(=O)NN2CCOCC2)ccc1OCC(=O)Nc1ccc(Cl)cn1 | 165 to 167 |
| ClCCOc1ccc(CBr)cc1 | 64 to 66 |
